What was measured:
Staphylococcus aureus [1] = test: Antibacterial activity against methicillin-resistant Staphylococcus aureus clinical isolate M14 by CLSI based micro-broth dilution method; type: functional
Staphylococcus aureus [2] = test: Antibacterial activity against methicillin-resistant Staphylococcus aureus clinical isolate M23 by CLSI based micro-broth dilution method; type: functional
Staphylococcus aureus [3] = test: Antibacterial activity against Staphylococcus aureus ATCC 29213 by CLSI based micro-broth dilution method; type: functional
Staphylococcus aureus [4] = test: Antibacterial activity against methicillin-resistant Staphylococcus aureus clinical isolate M17 by CLSI based micro-broth dilution method; type: functional
Staphylococcus aureus [5] = test: Antibacterial activity against methicillin-resistant Staphylococcus aureus clinical isolate M20 by CLSI based micro-broth dilution method; type: functional
Staphylococcus aureus [6] = test: Antibacterial activity against methicillin-resistant Staphylococcus aureus clinical isolate M21 by CLSI based micro-broth dilution method; type: functional
Staphylococcus aureus [7] = test: Antibacterial activity against methicillin-resistant Staphylococcus aureus clinical isolate M13 by CLSI based micro-broth dilution method; type: functional
Staphylococcus aureus [8] = test: Antibacterial activity against methicillin-resistant Staphylococcus aureus clinical isolate M11 by CLSI based micro-broth dilution method; type: functional
Escherichia coli = test: Antibacterial activity against Escherichia coli ATCC 25922 by CLSI based micro-broth dilution method; type: functional
Staphylococcus aureus [9] = test: Antibacterial activity against methicillin-resistant Staphylococcus aureus clinical isolate M16 by CLSI based micro-broth dilution method; type: functional
[10] = Selectivity index, ratio of HC50 for hemolytic activity in sheep erythrocytes to MIC for antibacterial activity against Staphylococcus aureus ATCC 29213; type: toxicity, cell-based, RBC
Staphylococcus aureus [11] = test: Antibacterial activity against methicillin-resistant Staphylococcus aureus clinical isolate M12 by CLSI based micro-broth dilution method; type: functional
Staphylococcus aureus [12] = test: Antibacterial activity against methicillin-resistant Staphylococcus aureus clinical isolate M22 by CLSI based micro-broth dilution method; type: functional
Staphylococcus aureus [13] = test: Antibacterial activity against methicillin-resistant Staphylococcus aureus N315 by CLSI based micro-broth dilution method; type: functional
[14] = Hemolytic activity in sheep erythrocytes incubated for 1 hr by absorbance based assay; type: toxicity, cell-based, Ovis aries, Erythrocyte

Compound | MIC (Staphylococcus aureus [1]) [µg/mL] | MIC (Staphylococcus aureus [2]) [µg/mL] | MIC (Staphylococcus aureus [3]) [µg/mL] | MIC (Staphylococcus aureus [4]) [µg/mL] | MIC (Staphylococcus aureus [5]) [µg/mL] | MIC (Staphylococcus aureus [6]) [µg/mL] | MIC (Staphylococcus aureus [7]) [µg/mL] | MIC (Staphylococcus aureus [8]) [µg/mL] | MIC (Escherichia coli) [µg/mL] | MIC (Staphylococcus aureus [9]) [µg/mL] | selectivity ratio [10] | MIC (Staphylococcus aureus [11]) [µg/mL] | MIC (Staphylococcus aureus [12]) [µg/mL] | MIC (Staphylococcus aureus [13]) [µg/mL] | HC50 at 1 h [14] [µg/mL]
C=CCc1cc(-c2ccc(OCCC[N+](C)(C)CC(=O)NCCCC)c(CC=C)c2)c2oc(=S)n(Cc3ccc(Cl)cc3Cl)c2c1.[Br-] | > 128 | > 128 | > 128 | > 128 | > 128 | > 128 | > 128 | > 128 | > 128 | > 128 | 1.3 | > 128 | > 128 | 128 | > 160
C=CCc1cc(-c2ccc(OCCC[N+](C)(C)CC(=O)NCCCC)c(CC=C)c2)c2oc(=S)n(Cc3ccc(Cl)c(Cl)c3)c2c1.[Br-] | 32 | 32 | 64 | 128 | 32 | 16 | 64 | 32 | > 128 | 32 | > 2.5 | 32 | 64 | 32 | > 160
C=CCc1cc(-c2ccc(OCCC[N+](C)(C)CC(=O)NCCCC)c(CC=C)c2)c2oc(=S)n(Cc3cc(Br)cc(Br)c3)c2c1.[Br-] | 128 | 64 | > 128 | 64 | 32 | 32 | 128 | 32 | > 128 | 64 | 1.3 | 64 | 64 | 64 | > 160
C=CCc1cc(-c2ccc(OCCC[N+](C)(C)CC(=O)NCCCC)c(CC=C)c2)c2oc(=S)n(Cc3cccc(Cl)c3Cl)c2c1.[Br-] | 32 | 64 | 32 | 64 | 8 | 8 | 64 | 16 | > 128 | 64 | 0.7 | 8 | 64 | 64 | 22
C=CCc1cc(-c2ccc(OCCC[N+](C)(C)CC(=O)NCCCC)c(CC=C)c2)c2oc(=S)n(Cc3ccc(F)c(Cl)c3)c2c1.[Br-] | 32 | 32 | 128 | 16 | 16 | 8 | 16 | 16 | > 128 | 16 | > 1.25 | 8 | 32 | 64 | > 160
C=CCc1cc(-c2ccc(OCCC[N+](C)(C)CC(=O)NCCCC)c(CC=C)c2)c2oc(=S)n(Cc3cccc(Br)c3)c2c1.[Br-] | 8 | 16 | 16 | 32 | 8 | 16 | 8 | 8 | > 128 | 8 | > 10 | 8 | 32 | 16 | > 160
C=CCc1cc(-c2ccc(OCCC[N+](C)(C)CC(=O)NCCCC)c(CC=C)c2)c2oc(=S)n(Cc3ccc(F)c(Br)c3)c2c1.[Br-] | 8 | 8 | 16 | 16 | 4 | 4 | 8 | 8 | > 128 | 8 | 2.6 | 4 | 32 | 16 | 42.1
C=CCc1cc(-c2ccc(OCCC[N+](C)(C)CC(=O)NCCCC)c(CC=C)c2)c2oc(=S)n(Cc3cc(Br)ccc3F)c2c1.[Br-] | 8 | 16 | 16 | 32 | 8 | 8 | 16 | 8 | > 128 | 8 | > 10 | 8 | 16 | 16 | > 160
C=CCc1cc(-c2ccc(OCCC[N+](C)(C)CC(=O)NCCCC)c(CC=C)c2)c2oc(=S)n(Cc3c(Cl)cccc3Cl)c2c1.[Br-] | 16 | 8 | 16 | 16 | 8 | 8 | 16 | 8 | > 128 | 8 | 25 | 4 | 32 | 32 | 400
C=CCc1cc(-c2ccc(OCCC[N+](C)(C)CC(=O)NCCCC)c(CC=C)c2)c2oc(=S)n(Cc3ccc(F)cc3Cl)c2c1.[Br-] | 16 | 32 | 32 | 64 | 16 | 16 | 64 | 16 | > 128 | 16 | > 5 | 32 | 64 | 32 | > 160
C=CCc1cc(-c2ccc(OCCC[N+](C)(C)CC(=O)NCCCC)c(CC=C)c2)c2oc(=S)n(Cc3ccc(Br)cc3Br)c2c1.[Br-] | > 128 | > 128 | > 128 | > 128 | > 128 | > 128 | > 128 | > 128 | > 128 | > 128 | 0.5 | > 128 | > 128 | 128 | 65.4
C=CCc1cc(-c2ccc(OCCC[N+](C)(C)CC(=O)NCCCC)c(CC=C)c2)c2oc(=S)n(Cc3ccccc3F)c2c1.[Br-] | 8 | 8 | 8 | 8 | 8 | 4 | 8 | 4 | > 128 | 8 | > 20 | 4 | 32 | 8 | > 160
C=CCc1cc(-c2ccc(OCCC[N+](C)(C)CC(=O)NCCCC)c(CC=C)c2)c2oc(=S)n(Cc3ccc(F)c(F)c3)c2c1.[Br-] | 2 | 4 | 4 | 4 | 4 | 4 | 2 | 4 | > 128 | 4 | 10.4 | 4 | 4 | 16 | 68.4
